Data on 2 compounds can be found in patent US7053090B2, “Triazaspiro[5.5]undecane derivatives and drugs containing the same as the active ingredient” (Ono Pharmaceutical Co., Ltd., priority 2001, dated 2006).

The target of the test is T1, human CCR5 (Homo sapiens, UniProt P51681).
T1 construct: expressed in transfected cells; host or cells: CHO-dhfr(-) cells stably transfected with pEF-BOS-bsr/hCCR5
Nature of the test: Inhibition test on the binding of RANTES to CCR5 (RANTES-induced transient increase of Ca ion). It counts as cell-based. The following applies: human CCR5 stably over-expressing CHO cell; recombinant human RANTES 10 nM; intracellular Ca2+ transient increase. The protocol: (1) Isolation of Human CCR5 Gene
Human placental cDNA was prepared using Marathon cDNA amplification kit (Clontech). PCR primers hCCR5Xbal-F1: 5′-[…]-3′ (SEQ ID NO:1) and hCCR5Xbal-R1: 5′-[…]-3′ (SEQ ID NO:2) were designed based on the sequence of GenBank U54994.
Using the human placental cDNA as the template and using Ex Taq (Takara), PCR reaction (2 minutes at 95° C.→(30 seconds at 95° C., 45 seconds at 60° C., 1 minute at 72° C.)×35 times) was carried out. The thus amplified PCR product was subjected to a 1% agarose gel electrophoresis, purified using QIAquick Gel Extraction Kit (QUIAGEN) and then digested with a restriction enzyme Xbal. The digested fragments were ligated to an expression vector pEF-BOS-bsr using DNA Ligation Kit Ver. […]
The thus established human CCR5 stably over-expressing CHO cell (CCR5/CHO cell) was suspended in Ham's F-12 medium containing FBS (10%) and dispensed in […] portions into a 96 well plate. […] Transient increase in the intracellular Ca^2+ concentration induced by the human RANTES was measured using a Ca^2+ detector for 96 well use (Hamamatsu Photonics), and inhibition ratio (%) of the test compound was calculated by the following calculation formula. Inhibition ratio=(Ec−Ea)/Ec×100 • Ec: measured value of Ca^2+ transient increase by RANTES • Ea: measured value of Ca^2+ transient increase by RANTES when a test compound was added.

Structures can show the parent of a compound that is named as a salt.

T1 sequence (P51681 whole entry): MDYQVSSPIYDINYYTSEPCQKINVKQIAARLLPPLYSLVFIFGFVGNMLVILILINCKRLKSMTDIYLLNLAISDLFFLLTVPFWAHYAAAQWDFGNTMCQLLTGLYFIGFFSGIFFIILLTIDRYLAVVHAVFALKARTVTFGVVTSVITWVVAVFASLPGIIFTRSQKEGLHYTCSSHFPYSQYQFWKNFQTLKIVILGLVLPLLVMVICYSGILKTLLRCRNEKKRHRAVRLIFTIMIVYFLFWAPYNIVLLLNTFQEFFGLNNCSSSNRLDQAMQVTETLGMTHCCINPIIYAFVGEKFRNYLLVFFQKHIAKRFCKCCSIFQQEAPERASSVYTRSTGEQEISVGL

By IC50 is commonly meant the concentration at which inhibition is half-maximal. In the case of `CCCCN1C(=O)[C@@H]([C@H](O)C(C)C)NC(=O)C12CCN(Cc1ccc(Oc3ccccc3)nc1)CC2` [Example 2, (3R)-1-butyl-2,5-dioxo-3-((1R)-1-hydroxy-2-methylpropyl)-9-(6-phenyloxypyridin-3-ylmethyl)-1,4,9-triazaspiro[5.5]undecane.2hydrochloride], the IC50 worked out at 27 nM. For `CCCCN1C(=O)[C@H]([C@@H](O)C(C)C)NC(=O)C12CCN(Cc1ccc(Oc3ccccc3)nc1)CC2` [Example 3, (3S)-1-butyl-2,5-dioxo-3-((1S)-1-hydroxy-2-methylpropyl)-9-(6-phenyloxypyridin-3-ylmethyl)-1,4,9-triazaspiro[5.5]undecane.2hydrochloride] the value was 370 nM.
